Patent US20110054188A1, “NEAR INFRARED FLUORESCENT IMAGING AGENT” (FUJIFILM Corporation, priority 2009, published 2011)

Assays:
Assay type in all cases: in vitro ADME
Settings in all cases: 5 μM, equilibrium dialysis 4 hours at 37° C.
[1] = tested on: plasma protein; test: Plasma protein binding rate test by equilibrium dialysis method, human plasma
Protocol: (§1) Plasma protein binding rates of the compounds were determined by equilibrium dialysis method (W. Lindner et al, J. Chromatography, 1996, 677, 1-28). Each test compound was dissolved in distilled water at concentration of 200 μM. The solution was added to the plasma of mouse, dog, rabbit, monkey and human respectively, at the amount to obtain the final concentration of 5 μM. This solution (300 μL) and PBS solution (500 μL) were added to each dialysis cell of equilibrium dialysis unit RED device (Pierce Biotechnology), and the cells were shaken at 100 rpm at 37° C. After 4 hours, samples of plasma and the buffer were collected, and the fluorescence intensity of each was measured by EnVision ([…]). After the concentrations were calculated from a calibration curve, the concentrations (%) of free test compound in plasma were determined.

[2] = tested on: plasma protein; test: Plasma protein binding rate test by equilibrium dialysis method, rabbit plasma
Protocol: as §1

[3] = tested on: plasma protein; test: Plasma protein binding rate test by equilibrium dialysis method, monkey plasma
Protocol: as §1

[4] = tested on: plasma protein; test: Plasma protein binding rate test by equilibrium dialysis method, mouse plasma
Protocol: as §1

[5] = tested on: plasma protein; test: Plasma protein binding rate test by equilibrium dialysis method, dog plasma
Protocol: as §1

SMILES | Plasma protein binding rate (%) human [1] [%] | Plasma protein binding rate (%) rabbit [2] [%] | Plasma protein binding rate (%) monkey [3] [%] | Plasma protein binding rate (%) mouse [4] [%] | Plasma protein binding rate (%) dog [5] [%]
CC1(C)C(/C=C/C=C/C=C/C=C2\N(CC(=O)O)c3ccc(S(=O)(=O)[O-])cc3C2(C)C)=[N+](CC(=O)O)c2ccc(S(=O)(=O)[O-])cc21.[Na+] [Compound 4] | 74 | 67 | 71 | 57 | 50
CC1(C)C(/C=C/C=C/C=C/C=C2/N(CCCCC(=O)O)c3ccc(S(=O)(=O)O)cc3C2(C)C)=[N+](CCCCC(=O)O)c2ccc(S(=O)(=O)O)cc21.[Na+].[Na+] [Compound 6] | 88 | 88 | 79 |  | 59
CC1(C)C(=CC=CC=CC=CC2=[N+](CCP(=O)([O-])[O-])c3ccc(S(=O)(=O)[O-])cc3C2(C)C)N(CCP(=O)([O-])[O-])c2ccc(S(=O)(=O)[O-])cc21.[Na+].[Na+].[Na+].[Na+].[Na+] [Compound 9] | 56 | 61 | 67 | 46 | 50
CC1(C)C(/C=C/C=C/C=C/C=C2/N(CCCP(=O)(O)O)c3ccc(S(=O)(=O)O)cc3C2(C)C)=[N+](CCCP(=O)(O)O)c2ccc(S(=O)(=O)O)cc21.[Na+].[Na+].[Na+].[Na+].[Na+].[Na+] [Compound 10] |  |  |  | 53 | 52
CC1(C)C(/C=C/C=C(/C=C/C=C2\N(CCP(=O)([O-])[O-])c3ccc(S(=O)(=O)[O-])cc3C2(C)C)c2ccccc2)=[N+](CCP(=O)([O-])[O-])c2ccc(S(=O)(=O)[O-])cc21.[Na+].[Na+].[Na+].[Na+].[Na+] [Compound 11] | 98 | 98 | 97 | 91 | 83
CC1(C)C(/C=C/C=C(/C=C/C=C2\N(CCCP(=O)([O-])[O-])c3ccc(S(=O)(=O)[O-])cc3C2(C)C)c2ccccc2)=[N+](CCCP(=O)([O-])[O-])c2ccc(S(=O)(=O)[O-])cc21.[Na+].[Na+].[Na+].[Na+].[Na+] [Compound 12] | 95 | 95 | 93 | 91 | 82
CC1(C)C(/C=C/C=C/C=C/C=C2/N(CCC(=O)[O-])c3ccc(P(=O)([O-])[O-])cc3C2(C)C)=[N+](CCC(=O)[O-])c2ccc(P(=O)([O-])[O-])cc21.[Na+].[Na+].[Na+].[Na+].[Na+] [Compound 13] | 89 | 87 | 90 |  | 
CC1(C)C(/C=C/C=C/C=C/C=C2/N(CCS(=O)(=O)[O-])c3ccc(P(=O)([O-])[O-])cc3C2(C)C)=[N+](CCS(=O)(=O)[O-])c2ccc(P(=O)([O-])[O-])cc21.[Na+].[Na+].[Na+].[Na+].[Na+] [Compound 14] | 94 | 87 | 95 |  | 71
CC1(C)C(/C=C/C=C(/C=C/C=C2\N(CCS(=O)(=O)[O-])c3ccc(P(=O)([O-])[O-])cc3C2(C)C)c2ccccc2)=[N+](CCS(=O)(=O)[O-])c2ccc(P(=O)([O-])[O-])cc21.[Na+].[Na+].[Na+].[Na+].[Na+] [Compound 15] | 93 | 94 | 96 |  | 
CC1(C)C(/C=C/C=C(/C=C/C=C2\N(CCC(=O)[O-])c3ccc(P(=O)([O-])[O-])cc3C2(C)C)c2ccccc2)=[N+](CCC(=O)[O-])c2ccc(P(=O)([O-])[O-])cc21.[Na+].[Na+].[Na+].[Na+].[Na+] [Compound 16] | 95 | 95 | 92 | 77 | 77
CC(/C=C/C=C1\N(CCC(=O)[O-])c2ccc(P(=O)([O-])[O-])cc2C1(C)C)=C\C=C\C1=[N+](CCC(=O)[O-])c2ccc(P(=O)([O-])[O-])cc2C1(C)C.[Na+].[Na+].[Na+].[Na+].[Na+] [Compound 17] | 93 | 79 | 91 | 63 | 59
CC(/C=C/C=C1\N(CCS(=O)(=O)[O-])c2ccc(P(=O)([O-])[O-])cc2C1(C)C)=C\C=C\C1=[N+](CCS(=O)(=O)[O-])c2ccc(P(=O)([O-])[O-])cc2C1(C)C.[Na+].[Na+].[Na+].[Na+].[Na+] [Compound 18] | 96 | 82 | 95 | 59 | 
CC1(C)C(/C=C/C=C/C=C/C=C2\N(CCS(=O)(=O)[O-])c3ccc(S(=O)(=O)[O-])cc3C2(C)C)=[N+](CCS(=O)(=O)[O-])c2ccc(S(=O)(=O)[O-])cc21.[Na+].[Na+].[Na+] [Compound A, reference compound] | 82 | 79 | 87 | 27 | 29
CC(/C=C/C=C1\N(CCS(=O)(=O)[O-])c2ccc(S(=O)(=O)[O-])cc2C1(C)C)=C\C=C\C1=[N+](CCS(=O)(=O)[O-])c2ccc(S(=O)(=O)[O-])cc2C1(C)C.[Na+].[Na+].[Na+] [Compound B, reference compound] | 92 | 88 | 93 |  | 
